# Experiments:
# [1] = Kinetic/aqueous solubility in PBS pH 7.4; format: physicochemical; conditions: for PBS Sol pH7.4: solubility in Phosphate Buffered Saline pH 7.4, first value of cell; for solubility: amorphous compounds
# Method: PBS Sol/Toxicity pH7.4 refers to solubility of the compound in Phosphate Buffered Saline (PBS) at pH7.4. […] Parasites were RH-YFP expressing tachyzoites (Tachy) and EGS (Brady) strains. Studies of effects of inhibitors on HFF or on T.gondii tachyzoites were performed with triplicate wells in at least two biological replicate experiments. Studies of effects on bradyzoites were performed at least twice in at least two biological replicate experiments. Compounds with much less inhibition of mammalian than T. gondii cytochrome bc in the saffarine enzyme assay (indicated by **) provide potential to further develop compounds, if unanticipated toxicity occurs from JAG21.
# (§1) Structure Activity Relationship (SAR) and comparison of effect on T.gondii and HFF enzyme activity. […] The MDCK-MDR1 Permeability Assay was also performed. […] These were measured by Chem Partners.
# [2] = molecular target: T1, P. falciparum bc1 complex cytochrome c reductase (Pfbc1) (Plasmodium falciparum, UniProt Q02768); test: Pfbc1 native assay (cytochrome c reduction by parasite extract); format: biochemical; conditions: atovaquone 1 μM positive control, mean±S.D., N=4
# T1 construct: Parasite extract was then prepared by disruption with a sonicating probe; endogenous in cells; host or cells: P. falciparum 3D7 blood-stage parasites freed by saponin, sonicated extract
# T1 sequence (Q02768 1-376): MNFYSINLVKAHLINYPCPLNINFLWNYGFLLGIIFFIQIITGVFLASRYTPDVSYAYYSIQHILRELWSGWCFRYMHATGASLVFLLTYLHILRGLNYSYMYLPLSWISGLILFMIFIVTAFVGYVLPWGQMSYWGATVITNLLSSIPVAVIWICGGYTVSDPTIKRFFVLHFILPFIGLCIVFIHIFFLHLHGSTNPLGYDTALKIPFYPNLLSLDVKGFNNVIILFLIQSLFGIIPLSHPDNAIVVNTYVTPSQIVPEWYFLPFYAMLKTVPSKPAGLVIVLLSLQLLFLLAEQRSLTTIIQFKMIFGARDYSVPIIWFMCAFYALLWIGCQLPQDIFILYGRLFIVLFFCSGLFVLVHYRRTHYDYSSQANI
# Method: Enzyme assays. P. falciparum 3D7 strain were obtained from the Liverpool School of Tropical Medicine. Protease cocktail inhibitor was obtained from Roche. Bradford protein assay dye reagent was obtained from Bio-Rad. All other reagents were obtained from Sigma-Aldrich. Decylubiquinol was produced as per Fisher et al. (2009). In brief, 25 mg of decylubiquinone were dissolved in 400 μl of nitrogen-saturated hexane. An equal volume of aqueous 1 M sodium dithionite was added, and the mixture vortexed until colorless. […] Concentrations of decylubiquinol was determined spectrophotometrically on a Cary 300 Bio UV/visible spectrophotometer (Varian, UK) from absolute spectra, using ε288-320=8.1 mM-1·cm^−1. […]
# The protocol for the preparation of parasite extract was adapted from Fisher et al. Free parasites were prepared from infected erythrocytes pooled from five T75 flasks, by adding 5 volumes of 0.15% (w/v) saponin in phosphate-buffered saline (137 mM NaCl, 2.7 mM KCl, 1.76 mM K2HPO4, 8.0 mM Na2HPO4, 5.5 mM D-glucose, pH 7.4) for 5 min, followed by three washes by centrifugation in RPMI containing HEPES (25 mM), and a final resuspension in potassium phosphate buffer (50 mM K2HPO4, 50 mM KH2PO4, 2 mM EDTA, pH7.4) containing a protease inhibitor cocktail (Complete Mini; Roche). […] The protein concentration of the parasite extract was determined by Bradford protein assay (Bio-Rad). […]
# [3] = test system: Human Foreskin Fibroblast (HFF); test: Cytotoxicity assay with WST-1 on HFF; format: cell-based; conditions: for Toxicity* (highest concentration tested that does not show toxicity to HFF): WST assay, second value of cell
# Method: (§2) PBS Sol/Toxicity pH7.4 refers to solubility of the compound in Phosphate Buffered Saline (PBS) at pH7.4. […] Tachy/Brady IC50 was determined in studies in which cultures of parasites in HFF were treated with varying concentrations of the compound and there was 50% inhibition of the replication (number) of parasites. Parasites were RH-YFP expressing tachyzoites (Tachy) and EGS (Brady) strains. Studies of effects of inhibitors on HFF or on T.gondii tachyzoites were performed with triplicate wells in at least two biological replicate experiments. Studies of effects on bradyzoites were performed at least twice in at least two biological replicate experiments. Compounds with much less inhibition of mammalian than T. gondii cytochrome bc in the saffarine enzyme assay (indicated by **) provide potential to further develop compounds, if unanticipated toxicity occurs from JAG21.
# Cytotoxicity Assays in parallel with RH Strain T.gondii in vitro studies. Toxicity assays used WST-1 cell proliferation reagent (Roche) as in Fomovska et al. (2012). HFF were grown on a flat, clear-bottomed, black 96-well plate. Confluent HFF were treated with inhibitory compounds at concentrations of 10 μM and 50 μM. Compounds were diluted in IMDM-C, and 20 μL were added to each designated well, with triplicates for each condition. A gradient with 2 fold-decreasing concentrations of DMSO from 10% to 0% in colorless, translucent IMDM-C was used as a control. The plate was incubated for 72 hours at 37° C. 10 μL WST-1 reagent (Roche) were added to each well. Cells were incubated for 30-60 minutes. Absorbance was read using a fluorimeter at 420 nm. A higher degree of color change (and absorbance) indicated mitochondrial activity and cell viability.
# Because T. gondii grows inside cells, if a compound were toxic to host HFF then it would make the compound appear to be spuriously effective (Fomovska et al. 2012; Fomovska et al. 2012a), when in actuality only toxicity for the host cell would be measured. Cytotoxicity to HFF was therefore assessed for all compounds at 10 μM. Results of this experiment are in Table 1, toxicity column. A two-way ANOVA and subsequent pairwise comparison found none of the differences in absorbance, compared to the media-DMSO vehicle controls, to be statistically significant (p>0.05). Most of these compounds are not toxic at 10 μM (the limit of solubility) and that cytotoxicity to cells can be attributed to DMSO in the solution, not the compound.
# [4] = test system: T. gondii mitochondrial membrane potential (cytochrome bc); test: Mitochondrial membrane potential by the safranine method (T. gondii, compared with HFF); format: cell-based, Toxoplasma gondii; conditions: for Effect on T. gondii mitochondrial membrane potential: doses as high as 4 μM
# Method: T.gondii and HFF Mitochondrial Membrane Potential Measurements—the mitochondrial membrane potential was measured by the safranine method according to Vercesi et al, 1998). Freshly egressed T. gondii tachyzoites were filtered and washed twice with intracellular buffer (125 mM sucrose, 65 mM KCl, 10 mM HEPES-KOH buffer, pH 7.2, 1 mM MgCl2 and 2.5 mM potassium phosphate). After washing, the parasites were resuspended in the same buffer at 10^9/ml. An aliquot of 50 μL of this suspension was added to a cuvette containing Safranin 0, 2.5 μM and Succinate 1 mM in final volume of 2 mL of the intracellular buffer. The fluorescence was measured with a Hitachi 7000 spectrofluorometer with setting Ex. 495/Em. 586. Once the baseline fluorescence is testable, 30 μM digitonin was added to permeabilize the parasites. 85 seconds after permeabilization, the THQ derivatives, dissolved in DMSO, were added. 5 μM of FCCP (Carbonyl cyanide-4-(trifluoromethoxy) phenylhydrazone) was used as an uncoupler reference for calculations and its effect was considered 100%. Similar conditions for measuring the mitochondrial potential of mammalian cells were used with the following changes: the mammalian cells were re-suspended at 10^8/ml. 50 μl of mammalian cells was also used for each run in a cuvette with […]. The substrate used for mammalian cells was 5 mM glutamate and 5 mM malate. A higher concentration of digitonin (50 μM) was used to permeabilize the mammalian cells. The compounds were added at about 400 seconds after permeabilization. Each experiment was repeated at least three times in duplicates. Statistical analysis, unpaired student t test, was performed using GraphPad Prism 8.0 (GraphPad Software, Inc., San Diego, Calif.).
# Mitochondrial membrane potential measurements were performed with permeabilized T.gondii tachyzoites in suspension using safranin O, which loads into polarized membranes. T. gondii tachyzoites were permeabilized with digitonin to allow the mitochondrial substrate succinate to cross the membrane and energize the mitochondrion. The fluorescence of safranin O, which loads into energized mitochondria was used to measure the membrane potential. The energized state of the mitochondrion is observed by a decrease in fluorescence (FIGS. 3A,C,E). Trifluoromethoxy carbonylcyanide phenylhydrazone (FCCP) was used to depolarize the membrane, which causes the fluorescence to go up as shown in FIG. 3A. JAG21 depolarized the membrane potential even at concentrations as low as 2 nM (FIG. 3C,D). JAG21 and Atovaquone had similar effects on the mitochondrial membrane potential (FIG. 3D). […] The effect of these THQ compounds against the T. gondii mitochondrial membrane potential was greater than the effect on the human foreskin fibroblast membrane potential (FIG. 3E,F). […]
# [5] = test system: T. gondii RH-YFP tachyzoites; test: In vitro challenge assay, RH strain YFP tachyzoites in HFF; format: cell-based, Toxoplasma gondii; conditions: requires hepatic metabolism
# Method: as §2
# RH strain YFP Tachyzoites. Protocol was adapted from Fomovska et al. (2012; 2012a) for HFF. […] RH-YFP, lysed from host cells by passing twice through a 27-gauge needle, were counted, then diluted to 32,000/mL in IMDM-C. […] Plates were read using a fluorimeter (Synergy H4 Hybrid Reader, BioTek) to ascertain amount of relative fluorescence units (RFU) YFP, to measure parasite burden after treatment. Data were collected using Gen5 software with IC50 calculated by graphical analysis in Excel. […]
# [6] = Metabolic stability in mouse liver microsomes; format: in vitro ADME; conditions: predicted half-life in mouse liver microsomes; no unit in table (101 minutes for JAG021)
# [7] = test system: P-glycoprotein (MDR1, ABCB1); test: in vitro; format: in vitro ADME, canine; conditions: dog, MDCK-MDR1
# Method: as §1
structure (smiles),measurement,setting,value
O=c1c2c([nH]c(CO)c1-c1ccc(Oc3ccc(OC(F)(F)F)cc3)cc1)CCCC2 [JAG099],PBS Sol pH7.4,[1],4.05 μM
same,inhibition at 1 µM,[2],81.3 ± 6%
Cc1[nH]c2c(c(=O)c1-c1ccc(Oc3ccc(C(=O)O)cc3)cc1)CCCC2 [JAG046],Toxicity* (highest concentration tested that does not show toxicity to HFF),[3],ND/5 μM
same,Effect on T. gondii mitochondrial membrane potential,[4],almost no effect
Cc1[nH]c2c(c(=O)c1-c1ccc(Oc3cccc(C(=O)O)c3)cc1)CCCC2 [JAG047],Toxicity* (highest concentration tested that does not show toxicity to HFF),[3],ND/5 μM
same,Effect on T. gondii mitochondrial membrane potential,[4],almost no effect
Cc1[nH]c2c(c(=O)c1-c1ccc(Oc3ccc(Cl)cc3)cc1)CCCC2 [JAG050],solubility,[1],16 µM
same,PBS Sol pH7.4,[1],16.41 μM
same,Toxicity to human cells in the in vitro model (HFF),[3],not toxic
same,Concentration depolarizing the T. gondii mitochondrial membrane potential,"[4]; permeabilized tachyzoites, safranin O",≥ 200 nM
COc1cc(C)c2c(Oc3cccc(C(F)(F)F)c3)c(OC)cc(NC(C)CCCN)c2n1 (stereo not shown) [Tafenoquine],Activity in tissue culture,[5],not active
Cc1[nH]c2c(c(=O)c1-c1ccc(Oc3ccccc3)cc1)CCCC2 [MJM170],solubility,"[1]; phosphate buffered saline, pH 7.4, aqueous buffer, kinetic from dmso stock",2 µM
same,PBS Sol pH7.4,[1],1.97 μM
same,T1/2 (M),[6],20.97
same,Papp,[7],> 10 ×10⁻⁶ cm/s
same,efflux ratio,[7],< 1.5

# Source: patent US20230181564A1, “Potent Tetrahydroquinolone Eliminates Apicomplexan Parasites” (The University of Chicago, priority 2020, published 2023)
